What was measured:
Assay type in all cases: biochemical
[1] = biological target: T1, NMDAR2B expressing HEK cell membranes (Homo sapiens, UniProt Q13224); experiment: NMDAR agonist assay, [3H]MK-801 binding, NMDAR2B; conditions: 50 μM glutamate; for EC50: [3H]MK-801 binding, read-out: NMDAR2B log EC50 (converted)
T1 construct: expressed in transfected cells; host or cells: HEK cells (membrane extract)
Protocol: (§1) (nonequilibrium conditions).
(§2) The baseline value was determined from the best fit curve of the DPM values modeled using the GraphPad program and the log(agonist) vs. response(three parameters) algorithm was then subtracted from all points in the dataset.

[2] = biological target: T2, NMDAR2A expressing HEK cell membranes (Homo sapiens, UniProt Q12879); experiment: NMDAR agonist assay, [3H]MK-801 binding, NMDAR2A; conditions: 50 μM glutamate; for EC50: [3H]MK-801 binding, read-out: NMDAR2A: log EC50 (converted)
T2 construct: expressed in transfected cells; host or cells: HEK cells (membrane extract)
Protocol: as §1, §2

[3] = biological target: T3, NMDAR2B expressing HEK cell membranes (Homo sapiens, UniProt Q05586+Q13224); experiment: NMDAR agonist assay, [3H]MK-801 binding, NMDAR2B; conditions: 50 μM glutamate; for EC50: [3H]MK-801 binding, read-out: NMDAR2B log EC50 (converted); for Emax: relative to 1 mM glycine, read-out: NMDAR2B: % maximal [3H]MK-801 binding relative to 1 mM glycine
T3 construct: expressed in transfected cells; host or cells: HEK cells (membrane extract)
Protocol: as §1, §2

[4] = biological target: T4, NMDAR2A expressing HEK cell membranes (Homo sapiens, UniProt Q05586+Q12879); experiment: NMDAR agonist assay, [3H]MK-801 binding, NMDAR2A; conditions: 50 μM glutamate; for EC50: [3H]MK-801 binding, read-out: NMDAR2A: log EC50 (converted); for Emax: relative to 1 mM glycine, read-out: NMDAR2A: % maximal [3H]MK-801 binding relative to 1 mM glycine
T4 construct: expressed in transfected cells; host or cells: HEK cells (membrane extract)
Protocol: as §1, §2

T1 sequence (Q13224 27-1484, other chains not shown): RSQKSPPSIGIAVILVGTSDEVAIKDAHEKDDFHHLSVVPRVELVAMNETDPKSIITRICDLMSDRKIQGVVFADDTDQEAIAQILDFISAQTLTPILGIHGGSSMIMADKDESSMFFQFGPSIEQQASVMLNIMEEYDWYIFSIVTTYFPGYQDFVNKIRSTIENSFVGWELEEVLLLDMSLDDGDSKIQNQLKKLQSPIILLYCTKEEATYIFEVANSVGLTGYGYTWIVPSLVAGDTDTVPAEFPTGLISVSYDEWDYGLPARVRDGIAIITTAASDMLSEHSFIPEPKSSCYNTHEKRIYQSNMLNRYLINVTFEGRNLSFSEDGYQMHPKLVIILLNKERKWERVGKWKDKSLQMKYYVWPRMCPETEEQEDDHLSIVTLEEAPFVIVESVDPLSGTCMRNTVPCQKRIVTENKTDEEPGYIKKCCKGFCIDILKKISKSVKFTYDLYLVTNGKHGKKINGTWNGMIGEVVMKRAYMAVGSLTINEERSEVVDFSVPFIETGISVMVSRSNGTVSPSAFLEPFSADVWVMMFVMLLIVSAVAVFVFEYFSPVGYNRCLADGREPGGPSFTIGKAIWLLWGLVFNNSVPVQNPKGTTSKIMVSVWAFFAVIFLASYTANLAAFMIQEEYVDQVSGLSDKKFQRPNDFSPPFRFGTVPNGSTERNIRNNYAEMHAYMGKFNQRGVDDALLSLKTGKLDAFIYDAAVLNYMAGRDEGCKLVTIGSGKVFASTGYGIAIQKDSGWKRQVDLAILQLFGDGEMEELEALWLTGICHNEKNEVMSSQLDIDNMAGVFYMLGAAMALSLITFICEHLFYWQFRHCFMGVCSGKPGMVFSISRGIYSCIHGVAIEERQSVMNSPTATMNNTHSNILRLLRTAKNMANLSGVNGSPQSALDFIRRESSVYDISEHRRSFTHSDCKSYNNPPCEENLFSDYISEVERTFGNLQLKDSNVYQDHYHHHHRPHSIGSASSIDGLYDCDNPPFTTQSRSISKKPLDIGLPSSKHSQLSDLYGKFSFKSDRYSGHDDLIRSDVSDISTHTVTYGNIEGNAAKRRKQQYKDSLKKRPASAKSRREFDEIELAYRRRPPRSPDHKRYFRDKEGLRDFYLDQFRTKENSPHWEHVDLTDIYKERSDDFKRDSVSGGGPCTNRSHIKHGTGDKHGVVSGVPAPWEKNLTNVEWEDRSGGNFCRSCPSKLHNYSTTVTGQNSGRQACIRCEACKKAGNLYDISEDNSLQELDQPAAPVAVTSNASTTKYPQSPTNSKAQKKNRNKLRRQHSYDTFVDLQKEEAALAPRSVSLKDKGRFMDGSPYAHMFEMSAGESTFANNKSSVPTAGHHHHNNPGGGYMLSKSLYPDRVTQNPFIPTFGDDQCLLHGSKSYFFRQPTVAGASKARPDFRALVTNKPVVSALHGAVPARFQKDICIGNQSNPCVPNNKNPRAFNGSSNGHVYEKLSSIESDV
T3 sequence (Q13224 27-1484, other chains not shown): as above
T2 sequence (Q12879 23-1464, other chains not shown): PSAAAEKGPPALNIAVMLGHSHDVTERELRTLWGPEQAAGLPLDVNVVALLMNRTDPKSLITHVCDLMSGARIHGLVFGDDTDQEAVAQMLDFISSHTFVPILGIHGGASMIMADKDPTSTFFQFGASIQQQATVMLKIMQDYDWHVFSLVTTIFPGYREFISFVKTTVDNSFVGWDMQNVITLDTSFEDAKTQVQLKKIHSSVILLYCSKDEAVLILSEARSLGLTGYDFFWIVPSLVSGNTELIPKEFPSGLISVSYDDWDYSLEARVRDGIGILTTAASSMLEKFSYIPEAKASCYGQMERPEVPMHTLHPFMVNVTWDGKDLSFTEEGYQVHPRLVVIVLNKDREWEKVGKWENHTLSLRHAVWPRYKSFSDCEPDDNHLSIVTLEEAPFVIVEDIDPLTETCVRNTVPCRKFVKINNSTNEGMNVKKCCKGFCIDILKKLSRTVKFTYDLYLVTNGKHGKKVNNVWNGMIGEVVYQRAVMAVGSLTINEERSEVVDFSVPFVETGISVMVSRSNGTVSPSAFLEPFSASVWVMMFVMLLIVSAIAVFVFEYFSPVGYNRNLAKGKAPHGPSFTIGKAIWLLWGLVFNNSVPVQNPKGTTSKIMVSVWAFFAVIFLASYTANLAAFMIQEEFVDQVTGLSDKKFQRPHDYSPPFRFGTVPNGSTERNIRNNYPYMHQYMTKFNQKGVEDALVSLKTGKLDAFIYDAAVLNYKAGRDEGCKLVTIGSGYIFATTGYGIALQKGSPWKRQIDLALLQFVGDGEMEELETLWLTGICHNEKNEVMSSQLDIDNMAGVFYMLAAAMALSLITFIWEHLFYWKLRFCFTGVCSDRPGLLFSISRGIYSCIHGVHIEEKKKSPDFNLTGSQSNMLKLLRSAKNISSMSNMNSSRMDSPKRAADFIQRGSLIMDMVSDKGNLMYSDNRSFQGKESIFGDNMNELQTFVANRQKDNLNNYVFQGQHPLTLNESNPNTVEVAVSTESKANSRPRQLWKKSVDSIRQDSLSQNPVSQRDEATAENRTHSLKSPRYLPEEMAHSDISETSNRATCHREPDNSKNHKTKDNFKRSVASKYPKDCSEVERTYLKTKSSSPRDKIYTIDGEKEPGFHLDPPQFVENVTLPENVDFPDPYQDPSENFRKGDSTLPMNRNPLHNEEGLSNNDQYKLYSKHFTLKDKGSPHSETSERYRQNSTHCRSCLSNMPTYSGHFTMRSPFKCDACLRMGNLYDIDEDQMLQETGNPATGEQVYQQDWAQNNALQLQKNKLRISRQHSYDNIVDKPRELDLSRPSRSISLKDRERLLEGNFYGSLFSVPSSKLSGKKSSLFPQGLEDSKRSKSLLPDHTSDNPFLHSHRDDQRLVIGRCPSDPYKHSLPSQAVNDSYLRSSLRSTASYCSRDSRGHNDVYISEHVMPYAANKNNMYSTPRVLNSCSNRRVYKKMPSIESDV

| SMILES | EC50 [1] [nM] | NMDAR2B: % maximal [3H]MK-801 binding relative to 1 mM glycine [1] | NMDAR2A: % maximal [3H]MK-801 binding relative to 1 mM glycine [2] | EC50 [2] [nM] | EC50 [3] [nM] | EC50 [4] [nM] | Emax [4] [%] | Emax [3] [%] |
| --- | --- | --- | --- | --- | --- | --- | --- | --- |
| CC(C)(C)OC(=O)N1C2(CCC13CNC3=O)CNC2=O (single isomer, unassigned) [AA-2, tert-butyl 1,7-dioxo-2,5,8-triazadispiro[3.1.36.24]undecane-5-carboxylate] | > 100 | − (−=0) | + (<100%=+) |  |  |  |  |  |
| CC(C)(C)OC(=O)N1C2(CCC13CNC3=O)CNC2=O (single isomer, unassigned) [AA-3, tert-butyl 1,7-dioxo-2,5,8-triazadispiro[3.1.36.24]undecane-5-carboxylate] | > 100 | − (−=0) | − (−=0) | > 100 |  |  |  |  |
| CC(C)C(=O)N1C2(CCC13CNC3=O)CNC2=O (single isomer, unassigned) [AG, 5-isobutyryl-2,5,8-triazadispiro[3.1.36.24]undecane-1,7-dione] |  | − (−=0) |  |  | > 100 | < 1 | < 100 |  |
| C[C@@H](O)[C@H](NC(=O)C1CCC2(CNC2=O)N1Cc1ccccc1)C(N)=O (single isomer, unassigned) [AL-1] |  | − (−=0) |  |  | > 100 | < 1 | < 100 |  |
| CC(C)(C)OC(=O)N1C(C(N)=O)CCC12CN(OCc1ccccc1)C2=O (single isomer, unassigned) [BG, tert-butyl 2-(benzyloxy)-6-carbamoyl-1-oxo-2,5-diazaspiro[3.4]octane-5-carboxylate] |  |  | + (<100%=+) |  |  | < 1 |  | < 100 |
| CNC(=O)[C@@H](NCC1CCC2(CN(OCc3ccccc3)C2=O)N1C(=O)OC(C)(C)C)[C@@H](C)O (single isomer, unassigned) [BN] | > 100 |  |  | > 100 |  |  |  |  |
| C[C@@H](O)[C@H](NCC1CCC2(CN(OCc3ccccc3)C2=O)N1C(=O)OC(C)(C)C)C(=O)N(C)C (single isomer, unassigned) [BQ] |  |  | − (−=0) |  | < 1 | > 100 |  | < 100 |
| CC(O)C(NCC1CCC2(CN(OCc3ccccc3)C2=O)N1)C(N)=O (single isomer, unassigned) [CK] |  |  | − (−=0) |  | < 1 | > 100 |  | < 100 |
| CC(O)C(NCC1CCC2(CNC2=O)N1)C(N)=O (single isomer, unassigned) [CN] | < 1 | + (<100%=+) | ++ (>100%=++) | < 1 |  |  |  |  |
| CNC(=O)C(NCC1CCC2(CN(OCc3ccccc3)C2=O)N1)C(C)O (single isomer, unassigned) [CP] | < 1 |  |  | < 1 |  |  |  |  |
| CNC(=O)C(NCC1CCC2(CNC2=O)N1)C(C)O (single isomer, unassigned) [CQ] |  |  | − (−=0) |  | < 1 | > 100 |  | > 100 |
| CC(O)C(C(N)=O)N(C)CC1CCC2(CN(OCc3ccccc3)C2=O)N1 (single isomer, unassigned) [CT] |  |  | + (<100%=+) |  | < 1 | < 1 |  | < 100 |
| CC(O)C(C(N)=O)N(C)CC1CCC2(CNC2=O)N1 (single isomer, unassigned) [CU] |  |  | − (−=0) |  |  | > 100 |  | > 100 |
| NC(=O)C1CCC2(CN(OCc3ccccc3)C2=O)N1 (single isomer, unassigned) [CZ, 2-(benzyloxy)-1-oxo-2,5-diazaspiro[3.4]octane-6-carboxamide] |  |  |  | < 1 |  |  |  |  |
| NC(=O)C1CCC2(CNC2=O)N1 (single isomer, unassigned) [DB, 1-oxo-2,5-diazaspiro[3.4]octane-6-carboxamide] | < 1 |  |  |  |  |  |  |  |
| O=C1NCC12CCC1(CNC1=O)N2Cc1ccc(F)cc1 (single isomer, unassigned) [DJ, 5-(4-fluorobenzyl)-2,5,8-triazadispiro[3.1.36.24]undecane-1,7-dione] | < 1 |  |  |  |  | < 1 |  |  |
| O=C1NCC12CN(Cc1ccc(F)cc1)C1(CNC1=O)C2 (single isomer, unassigned) [DK, 10-(4-fluorobenzyl)-2,8,10-triazadispiro[3.1.3^6.2^4]undecane-1,7-dione] |  |  | + (<100%=+) |  | < 1 | < 1 |  | < 100 |
| CC(C)(C)OC(=O)N1C2(CCC13CNC3=O)CNC2=O (centres unmarked) [AA-1, tert-butyl 1,7-dioxo-2,5,8-triazadispiro[3.1.36.24]undecane-5-carboxylate] |  |  | − (−=0) |  | > 100 | > 100 |  | 0 |
| C[C@@H](O)[C@H](NCC1CCC2(CN(OCc3ccccc3)C2=O)N1C(=O)OC(C)(C)C)C(N)=O (some centres unmarked) [BI] |  |  |  |  | > 100 | > 100 | 0 | 0 |
| C[C@@H](O)[C@H](NCC1CCC2(CNC2=O)N1C(=O)OC(C)(C)C)C(N)=O (some centres unmarked) [BK] |  |  |  |  |  | > 100 | 0 | < 100 |
| CNC(=O)[C@@H](NCC1CCC2(CNC2=O)N1C(=O)OC(C)(C)C)[C@@H](C)O (some centres unmarked) [BP] |  |  |  |  | > 100 | > 100 | 0 | 0 |
| C[C@@H](O)[C@@H](C(N)=O)N(C)CC1CCC2(CN(OCc3ccccc3)C2=O)N1C(=O)OC(C)(C)C (stereo partly drawn) [BU, tert-butyl 6-((((2S,3R)-1-amino-3-hydroxy-1-oxobutan-2-yl)(methyl)amino)methyl)-2-(benzyloxy)-1-oxo-2,5-diazaspiro[3.4]octane-5-carboxylate] |  |  |  |  | < 1 | < 1 | < 100 | < 100 |
| C[C@@H](O)[C@@H](C(=O)N(C)C)N(C)CC1CCC2(CN(OCc3ccccc3)C2=O)N1C(=O)OC(C)(C)C (some centres unmarked) [BW] |  |  |  |  | < 1 | < 1 | < 100 | > 100 |
| COc1ccc(CN2CC3(CC(N[C@H](C(N)=O)[C@@H](C)O)CN3C(=O)OC(C)(C)C)C2=O)cc1 (stereo partly drawn) [CA, tert-butyl 7-(((2S,3R)-1-amino-3-hydroxy-1-oxobutan-2-yl)amino)-2-(4-methoxybenzyl)-1-oxo-2,5-diazaspiro[3.4]octane-5-carboxylate] |  |  |  |  | > 100 | > 100 | 0 | 0 |
| COc1ccc(CN2CC3(CC(N[C@H](C(N)=O)[C@@H](C)O)CN3)C2=O)cc1 (some centres unmarked) [CC] |  |  |  |  | > 100 |  | < 100 | 0 |
| COc1ccc(CN2CC3(CC(N[C@H](C(=O)O)[C@@H](C)O)CN3C(=O)OC(C)(C)C)C2=O)cc1 (stereo partly drawn) [CF, (5-(tert-butoxycarbonyl)-2-(4-methoxybenzyl)-1-oxo-2,5-diazaspiro[3.4]octan-7-yl)-L-threonine] |  |  |  |  | < 1 | > 100 | 0 | < 100 |
| COc1ccc(CN2C[C@@]3(C[C@H](C(N)=O)CN3CC(C)C)C2=O)cc1 [CI, (4S,7S)-5-isobutyl-2-(4-methoxybenzyl)-1-oxo-2,5-diazaspiro[3.4]octane-7-carboxamide] |  |  |  |  | < 1 |  | < 100 | < 100 |
| COc1ccc(CN2CC3(C[C@H](C(N)=O)CN3CC(C)C)C2=O)cc1 (some centres unmarked) [CJ] |  |  |  |  |  |  | < 100 | < 100 |

Source: patent US11028095B2, “Spiro-lactam and bis-spiro-lactam NMDA receptor modulators and uses thereof” (Aptinyx Inc., priority 2016, dated 2021)
